The text below walks through data of ChEMBL document CHEMBL1201862, “PubChem BioAssay data set” (2004).

Molecules are shown by their SMILES. Calls of active or inactive are those of the source.

The nature of test [1]: inhibitors of SNCA 5'UTR-driven reporter translation, confirmation, H4 neuroglioma cells, luminescence (AID 1988). In kind it is functional, cell-based.
Test [2] is described as follows: inhibitors of firefly luciferase expression or activity, dose response, H4 neuroglioma cells, luminescence (AID 1990). It is filed as functional, cell-based.
A short description of test [3]: inhibitors of SNCA 5'UTR-driven translation, confirmation, luminescence, H4 neuroglioblastoma cells, dose confirmation (AID 2454).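 Further: H4 neuroglioblastoma cells carrying an alpha-synuclein 5'UTR luciferase reporter; potency for inhibition of the luciferase signal.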 It is filed as functional, cell-based.
Another test can be described thus: cells. It is filed as functional, cell-based.
Test [4] can be described thus: luciferase reporter signal reduction – luminescence, H4-C neuroglioblastoma cells, dose response (AID 2458).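 Further: H4 neuroglioblastoma cells stably carrying a luciferase reporter gene fusion.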 In kind it is functional, cell-based. For orientation: Reporter assays use an easily measured gene product as a stand-in for the process of interest.
The target in test [5] is T1, Microphthalmia-associated transcription factor (Homo sapiens, UniProt O75030).
T1 sequence (O75030 whole entry): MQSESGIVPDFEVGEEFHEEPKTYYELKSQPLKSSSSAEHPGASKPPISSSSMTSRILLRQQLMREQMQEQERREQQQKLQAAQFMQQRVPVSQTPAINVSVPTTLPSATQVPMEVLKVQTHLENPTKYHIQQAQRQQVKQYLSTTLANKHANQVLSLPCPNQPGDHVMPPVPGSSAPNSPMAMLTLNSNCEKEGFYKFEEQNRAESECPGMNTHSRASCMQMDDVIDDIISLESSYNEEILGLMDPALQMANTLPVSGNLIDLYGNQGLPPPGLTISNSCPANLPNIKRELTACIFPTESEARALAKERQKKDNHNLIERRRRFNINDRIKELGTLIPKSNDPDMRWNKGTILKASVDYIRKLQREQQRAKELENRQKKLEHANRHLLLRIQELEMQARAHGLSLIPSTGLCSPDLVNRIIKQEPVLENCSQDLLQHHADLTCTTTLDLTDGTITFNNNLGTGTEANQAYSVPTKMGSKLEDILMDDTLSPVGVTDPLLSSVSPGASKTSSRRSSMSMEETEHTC
In words: TRPM1 promoter luciferase signal decrease, dose response, MITF inhibitor project, cell-based, SK-MEL-5, cherry-picked, set 3 (AID 493073).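 Further: SK-MEL-5 melanoma cells with luciferase driven by the MITF target TRPM1 promoter.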 In kind it is functional.

The nature of test [6]: Luminescence Cell-Based Dose Response HTS to Identify Inhibitors of 5'UTR Stem-Loop Driven Prion Protein mRNA Translation in H4 Neuroglioblastoma Cells. [Related pubchem assays: 1827 (Project Summary), 1813 (Primary HTS)]. It is filed as functional.
A short description of test [7]: cytotoxicity in HPDE-C7 cells, cell-based, fluorescence, HTS (AID 430). It is filed as functional. The settings on record: Homo sapiens.
Test [8] deals with Voltage-dependent T-type calcium channel subunit alpha-1H (Homo sapiens, UniProt O95180). It is filed as functional.
A short description of test [9]: cytotoxicity in KRAS-transformed pancreatic duct cells, primary screen, cell-based, fluorescence, HTS (AID 431).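 Further: cell line used: HPDE-C7K.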 It is filed as functional. To be noted: Homo sapiens.
Test [10] is described as follows: A Cell Based Secondary Assay To Explore Cytotoxicity of Compounds that Sensitize Mycobacterium Tuberculosis to Beta-Lactam Antibiotics. In kind it is functional.
For the next test, the system named is H4. In words: Luminescence Cell-Based Dose Response HTS to Identify Activators of 5'UTR Stem-Loop Driven Prion Protein mRNA Translation in H4 Neuroglioblastoma Cells. [Related pubchem assays: 1829 (Project Summary), 1814 (Primary HTS)]. It is filed as functional. To be noted: Homo sapiens.
Test [11] deals with T2, Type-1 angiotensin II receptor (Homo sapiens, UniProt P30556).
T2 sequence (P30556 whole entry): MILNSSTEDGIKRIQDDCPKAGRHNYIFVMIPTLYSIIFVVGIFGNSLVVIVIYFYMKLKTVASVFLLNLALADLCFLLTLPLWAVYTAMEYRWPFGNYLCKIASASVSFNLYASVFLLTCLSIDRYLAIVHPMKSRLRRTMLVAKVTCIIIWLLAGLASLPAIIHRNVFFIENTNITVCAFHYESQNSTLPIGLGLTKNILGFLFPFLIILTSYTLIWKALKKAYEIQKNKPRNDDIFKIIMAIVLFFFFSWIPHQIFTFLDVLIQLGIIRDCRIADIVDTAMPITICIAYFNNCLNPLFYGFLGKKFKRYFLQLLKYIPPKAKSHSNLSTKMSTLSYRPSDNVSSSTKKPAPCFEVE
The test is described as follows: AT1 receptor antagonists, dose response, selectivity assay for APJ receptor antagonist project, cell-based, uHTS hits (AID 463214).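 Further: antagonist potency against angiotensin II stimulated AT1 response.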 In kind it is functional.

A short description of test [12]: Luminescence Cell-Based Dose Response HTS to Identify Activators of Luciferase Translation or Activity in H4 […] Cells. [Related pubchem assays: 1829 (Project Summary), 1814 (Primary HTS)]. It is filed as functional.
The nature of test [13]: Luminescence Cell-Based Dose Response to Identify Activators of 5'UTR Stem-Loop Driven Prion Protein mRNA Translation in H4-C Neuroglioblastoma Cells. [Related pubchem assays: 1829 (Project Summary), 1814 (Primary HTS)]. It is filed as functional.
Another test addresses Beta-galactosidase (Escherichia coli, UniProt Q8VNN2). In words: PubChem AID 485352. In kind it is functional.
The target of a further test is Large T antigen (Simian virus 40, UniProt P03070). In kind it is functional, Betapolyomavirus macacae.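 Further: Confirmatory-stage PubChem screen for compounds that inhibit SV40 T antigen.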
Large T antigen, sequence (P03070 whole entry): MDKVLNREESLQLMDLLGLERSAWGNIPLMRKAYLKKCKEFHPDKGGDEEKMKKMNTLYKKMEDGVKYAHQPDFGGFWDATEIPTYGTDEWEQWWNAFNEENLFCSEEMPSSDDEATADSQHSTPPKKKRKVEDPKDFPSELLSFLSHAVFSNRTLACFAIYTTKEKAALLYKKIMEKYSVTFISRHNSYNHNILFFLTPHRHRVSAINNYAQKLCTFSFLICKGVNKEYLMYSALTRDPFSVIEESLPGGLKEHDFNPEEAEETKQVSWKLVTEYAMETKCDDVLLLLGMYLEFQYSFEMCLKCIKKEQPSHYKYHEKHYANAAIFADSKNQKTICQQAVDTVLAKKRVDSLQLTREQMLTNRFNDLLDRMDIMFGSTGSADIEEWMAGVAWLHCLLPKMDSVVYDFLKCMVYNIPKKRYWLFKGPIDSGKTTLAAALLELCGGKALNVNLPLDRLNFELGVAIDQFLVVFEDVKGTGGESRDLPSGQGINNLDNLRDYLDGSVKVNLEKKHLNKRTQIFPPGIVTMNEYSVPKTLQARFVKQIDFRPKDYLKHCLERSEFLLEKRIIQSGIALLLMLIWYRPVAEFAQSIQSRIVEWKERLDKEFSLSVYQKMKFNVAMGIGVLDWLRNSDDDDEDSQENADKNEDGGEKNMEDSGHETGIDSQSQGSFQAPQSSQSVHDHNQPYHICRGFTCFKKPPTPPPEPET
The nature of test [14]: Luminescence Cell-Based Dose Confirmation to Identify Activators of 5'UTR Stem-Loop Driven Alpha-Synuclein mRNA Translation in H4 Neuroglioblastoma Cells. [Related pubchem assays: 1829 (Project Summary), 1814 (Primary HTS)]. It is filed as functional.
The nature of test [15]: Luminescence Cell-Based Dose Response to Identify Activators of Luciferase Translation or Activity in H4-C Neuroglioblastoma Cells. [Related pubchem assays: 1829 (Project Summary), 1814 (Primary HTS)]. In kind it is functional.
Test [16] has as its target T3, Voltage-gated N-type calcium channel alpha-1B subunit/Amyloid beta A4 precursor protein-binding family A member 1 (Homo sapiens, UniProt Q00975+Q02410). In kind it is protein assay.
Another test deals with Cytochrome P450 3A4 (Homo sapiens, UniProt P08684).
The next test deals with Cytochrome P450 2C19 (Homo sapiens, UniProt P33261). The test is described as follows: Cytochrome panel assay with activity outcomes. Panel member name: p450-cyp2c19 Compounds with AC50 equal or less than 10 uM are considered active. In kind it is functional. The settings on record: read-out: AC50.
In test [17] the target is 72 kDa type IV collagenase (Homo sapiens, UniProt P08253). The test is described as follows: Dose Response validation of uHTS RPN11 inhibitor hits using a MMP-2 Fluorescence assay. In kind it is functional.
For test [18], the target named is Induced myeloid leukemia cell differentiation protein Mcl-1 (Homo sapiens, UniProt Q07820). It is filed as functional.
Induced myeloid leukemia cell differentiation protein Mcl-1, sequence (Q07820 whole entry): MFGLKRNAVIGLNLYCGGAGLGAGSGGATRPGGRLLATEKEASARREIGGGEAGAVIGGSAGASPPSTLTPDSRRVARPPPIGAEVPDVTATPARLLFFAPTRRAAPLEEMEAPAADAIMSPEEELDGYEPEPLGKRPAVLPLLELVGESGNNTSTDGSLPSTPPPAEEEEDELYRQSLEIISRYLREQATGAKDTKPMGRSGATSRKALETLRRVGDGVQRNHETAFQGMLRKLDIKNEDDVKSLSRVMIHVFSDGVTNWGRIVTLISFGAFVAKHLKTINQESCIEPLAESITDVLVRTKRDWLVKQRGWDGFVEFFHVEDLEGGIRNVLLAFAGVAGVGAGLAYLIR
In test [19] the target is 26S proteasome non-ATPase regulatory subunit 14 (Homo sapiens, UniProt O00487). In words: inhibition of proteasome subunit RPN11 – biochemical, fluorescence polarization, uHTS hits, confirmation (AID 602368). It is filed as functional. For orientation: Polarisation of emitted light reports the rotation of a fluorescent probe.
The next test addresses NS3 (Hepatitis C virus, UniProt A3EZJ3). The test is described as follows: PubChem AID 2173. The arrangement: species or system Hepacivirus hominis.
The target of test [20] is T3, Voltage-gated N-type calcium channel alpha-1B subunit/Amyloid beta A4 precursor protein-binding family A member 1. In kind it is protein assay. This is another data set of the same source.
The next test concerns the target Prothrombin (Bos taurus, UniProt P00735). The test is described as follows: thrombin inhibition, dose response, biochemical, fluorescence polarization, uHTS hits (AID 602369). In kind it is functional.
Another test relates to HeLa. In words: HeLa cell cytotoxicity, dose response, cytotoxicity control, 24 h, cherry-picked samples (AID 504726).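 Further: potency for cytotoxicity as loss of luminescence signal.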 It is filed as functional, cell-based. To be noted: Homo sapiens.
Test [21] in a line: cytotoxicity in HEK-293T cells, dose response, cytotoxicity control for TCR NF-kB inhibitor project, luminescence, T-cell screen hits (AID 489026).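 Further: cells exposed to compound about 14 hours before the viability readout.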 In kind it is functional, cell-based.
Test [22] concerns Vero. In words: Vero cell cytotoxicity, cytotoxicity control for flavivirus capping enzyme inhibitors (AID 588742). It is filed as functional. To be noted: Chlorocebus sabaeus.
Test [23] deals with Vero. The test is described as follows: cells. In kind it is functional. To be noted: Chlorocebus sabaeus.
In a further test the test system is INS1. The test is described as follows: beta cell apoptosis inhibitors, cytokine rescue, dose response, luminescence, retest (AID 449756).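 Further: cell death triggered by IL-1 beta plus TNF-alpha plus IFN-gamma mixture; protective hits raise ATP signal compared with cytokine alone wells.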 To be noted: Rattus norvegicus. In kind it is functional, cell-based.
Another test deals with T4, CAAX prenyl protease 2 (Saccharomyces cerevisiae S288c, UniProt Q03530).
T4 sequence (Q03530 whole entry): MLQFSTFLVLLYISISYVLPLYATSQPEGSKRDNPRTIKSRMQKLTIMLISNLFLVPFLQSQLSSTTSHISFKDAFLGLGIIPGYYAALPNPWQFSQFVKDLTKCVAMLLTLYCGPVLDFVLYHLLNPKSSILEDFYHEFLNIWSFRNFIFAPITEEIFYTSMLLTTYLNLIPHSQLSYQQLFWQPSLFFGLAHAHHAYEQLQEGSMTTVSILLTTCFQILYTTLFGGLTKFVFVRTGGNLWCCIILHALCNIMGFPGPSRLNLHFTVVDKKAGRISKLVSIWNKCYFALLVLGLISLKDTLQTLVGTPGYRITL
In kind it is biochemical.

NS3, sequence (A3EZJ3 whole entry): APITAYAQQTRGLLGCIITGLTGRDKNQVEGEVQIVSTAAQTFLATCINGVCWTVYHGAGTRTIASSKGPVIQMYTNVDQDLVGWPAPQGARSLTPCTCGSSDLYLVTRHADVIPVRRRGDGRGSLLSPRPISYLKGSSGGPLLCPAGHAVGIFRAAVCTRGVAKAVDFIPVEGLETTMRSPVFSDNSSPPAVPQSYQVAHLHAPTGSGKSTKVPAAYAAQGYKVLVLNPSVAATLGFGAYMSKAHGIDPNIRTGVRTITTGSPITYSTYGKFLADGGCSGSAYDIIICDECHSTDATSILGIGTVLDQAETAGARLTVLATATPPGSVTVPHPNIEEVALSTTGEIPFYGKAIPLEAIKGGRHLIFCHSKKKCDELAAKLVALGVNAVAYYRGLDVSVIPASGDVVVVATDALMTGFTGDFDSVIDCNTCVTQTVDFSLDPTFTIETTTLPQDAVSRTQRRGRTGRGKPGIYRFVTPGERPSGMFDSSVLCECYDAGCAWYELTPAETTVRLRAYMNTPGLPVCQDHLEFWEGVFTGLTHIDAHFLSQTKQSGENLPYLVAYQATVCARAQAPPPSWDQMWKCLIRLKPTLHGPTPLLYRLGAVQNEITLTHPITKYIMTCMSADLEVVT
T3 sequence (Q00975 whole entry): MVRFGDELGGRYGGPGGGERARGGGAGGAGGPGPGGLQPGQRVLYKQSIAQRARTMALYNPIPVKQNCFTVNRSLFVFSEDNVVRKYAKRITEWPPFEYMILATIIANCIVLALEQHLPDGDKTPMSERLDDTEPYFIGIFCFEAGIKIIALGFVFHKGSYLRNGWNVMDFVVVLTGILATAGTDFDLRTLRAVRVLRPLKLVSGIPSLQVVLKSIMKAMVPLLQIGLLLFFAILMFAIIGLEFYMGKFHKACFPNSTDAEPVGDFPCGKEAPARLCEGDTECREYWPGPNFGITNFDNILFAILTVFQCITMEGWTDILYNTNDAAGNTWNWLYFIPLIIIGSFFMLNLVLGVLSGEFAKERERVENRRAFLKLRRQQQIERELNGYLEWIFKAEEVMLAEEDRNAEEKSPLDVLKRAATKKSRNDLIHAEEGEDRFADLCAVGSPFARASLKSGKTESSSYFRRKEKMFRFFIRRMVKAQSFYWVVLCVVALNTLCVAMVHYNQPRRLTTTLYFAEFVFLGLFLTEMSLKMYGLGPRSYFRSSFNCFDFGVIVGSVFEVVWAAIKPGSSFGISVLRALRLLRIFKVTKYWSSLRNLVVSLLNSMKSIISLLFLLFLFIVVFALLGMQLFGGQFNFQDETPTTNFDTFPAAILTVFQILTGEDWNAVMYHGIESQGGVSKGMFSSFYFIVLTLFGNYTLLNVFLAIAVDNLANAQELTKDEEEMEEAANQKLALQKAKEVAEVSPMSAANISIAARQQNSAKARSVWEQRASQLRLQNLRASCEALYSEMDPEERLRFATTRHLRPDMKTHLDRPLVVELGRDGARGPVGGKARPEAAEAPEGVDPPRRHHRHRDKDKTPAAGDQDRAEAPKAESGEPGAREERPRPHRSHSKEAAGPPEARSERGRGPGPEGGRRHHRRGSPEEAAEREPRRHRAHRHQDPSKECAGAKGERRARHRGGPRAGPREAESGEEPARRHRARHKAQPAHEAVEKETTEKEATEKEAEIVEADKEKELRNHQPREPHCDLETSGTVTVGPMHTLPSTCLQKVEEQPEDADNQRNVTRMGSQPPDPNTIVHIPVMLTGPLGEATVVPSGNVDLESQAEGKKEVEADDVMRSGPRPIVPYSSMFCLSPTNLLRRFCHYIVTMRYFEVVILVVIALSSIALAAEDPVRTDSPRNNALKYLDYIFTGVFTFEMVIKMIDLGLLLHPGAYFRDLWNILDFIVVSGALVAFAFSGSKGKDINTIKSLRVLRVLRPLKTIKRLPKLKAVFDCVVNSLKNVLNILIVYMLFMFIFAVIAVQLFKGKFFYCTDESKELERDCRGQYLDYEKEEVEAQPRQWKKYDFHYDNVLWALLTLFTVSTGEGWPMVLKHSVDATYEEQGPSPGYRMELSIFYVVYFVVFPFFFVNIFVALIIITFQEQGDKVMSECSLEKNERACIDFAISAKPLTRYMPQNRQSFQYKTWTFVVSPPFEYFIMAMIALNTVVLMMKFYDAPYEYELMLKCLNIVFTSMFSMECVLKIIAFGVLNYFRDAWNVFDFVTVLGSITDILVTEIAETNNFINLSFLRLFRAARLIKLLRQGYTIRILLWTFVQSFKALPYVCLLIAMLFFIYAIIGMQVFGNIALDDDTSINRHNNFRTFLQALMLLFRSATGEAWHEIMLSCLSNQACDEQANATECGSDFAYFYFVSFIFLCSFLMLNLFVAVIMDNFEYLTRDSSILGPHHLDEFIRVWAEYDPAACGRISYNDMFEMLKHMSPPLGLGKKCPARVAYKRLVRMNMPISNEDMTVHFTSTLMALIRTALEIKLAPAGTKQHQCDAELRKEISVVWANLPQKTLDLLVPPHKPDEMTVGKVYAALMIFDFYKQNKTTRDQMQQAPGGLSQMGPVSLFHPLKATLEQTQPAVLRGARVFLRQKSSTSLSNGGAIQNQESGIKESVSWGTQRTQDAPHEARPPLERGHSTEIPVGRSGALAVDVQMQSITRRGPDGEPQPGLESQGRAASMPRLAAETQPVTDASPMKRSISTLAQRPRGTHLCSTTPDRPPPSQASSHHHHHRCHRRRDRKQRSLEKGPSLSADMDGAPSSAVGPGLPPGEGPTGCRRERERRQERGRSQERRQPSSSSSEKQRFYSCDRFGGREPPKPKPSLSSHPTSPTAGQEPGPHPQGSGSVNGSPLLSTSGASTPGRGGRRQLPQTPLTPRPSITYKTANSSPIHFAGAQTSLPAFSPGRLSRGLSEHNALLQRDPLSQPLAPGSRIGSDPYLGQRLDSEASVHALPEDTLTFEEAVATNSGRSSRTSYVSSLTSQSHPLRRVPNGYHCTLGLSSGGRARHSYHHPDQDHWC
T3 sequence (Q02410 whole entry): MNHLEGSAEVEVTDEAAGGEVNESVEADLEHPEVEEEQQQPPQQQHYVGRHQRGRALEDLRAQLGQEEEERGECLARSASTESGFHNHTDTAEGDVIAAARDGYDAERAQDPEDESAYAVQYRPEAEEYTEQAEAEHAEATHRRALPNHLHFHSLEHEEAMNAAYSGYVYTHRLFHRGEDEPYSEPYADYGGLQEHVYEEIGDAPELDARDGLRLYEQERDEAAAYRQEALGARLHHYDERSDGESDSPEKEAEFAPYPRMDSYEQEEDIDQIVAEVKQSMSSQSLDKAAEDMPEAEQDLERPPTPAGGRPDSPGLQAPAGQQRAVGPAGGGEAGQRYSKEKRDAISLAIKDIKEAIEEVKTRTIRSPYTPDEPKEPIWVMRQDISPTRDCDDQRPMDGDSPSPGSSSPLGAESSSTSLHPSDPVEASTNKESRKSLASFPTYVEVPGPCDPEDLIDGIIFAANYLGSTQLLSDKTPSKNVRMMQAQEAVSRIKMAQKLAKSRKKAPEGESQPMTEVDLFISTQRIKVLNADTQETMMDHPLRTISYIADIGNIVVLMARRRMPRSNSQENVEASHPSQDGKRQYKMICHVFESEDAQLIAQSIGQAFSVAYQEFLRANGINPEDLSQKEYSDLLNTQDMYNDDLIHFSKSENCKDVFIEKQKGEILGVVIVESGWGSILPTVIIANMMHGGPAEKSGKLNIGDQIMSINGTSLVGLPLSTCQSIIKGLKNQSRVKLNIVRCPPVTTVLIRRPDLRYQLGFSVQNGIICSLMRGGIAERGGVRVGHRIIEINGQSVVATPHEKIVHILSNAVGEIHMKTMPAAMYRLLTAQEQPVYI

A word on the EC50: it is the concentration needed to bring the measured effect to its halfway point. As a reminder, the AC50 is the midpoint of the concentration-response curve, whichever way the signal moves. Regarding `Nc1ccc(-c2ncc(-c3ccccc3)o2)cc1`, the EC50 in test [1] was < 0.1 µM (active); in test [2], < 0.1 µM (active); in test [3], 0.07 µM (active); in “cells”, 0.178 µM (active); in [4], 0.044 µM (active); in test [6], < 0.1 µM (active). Further, in test [5], the half-maximal activity concentration (AC50) is 0.171 µM (active).
On to `COc1cc(C)c(C(C)C)cc1S(=O)(=O)n1cnc(C)c1`, for which the concentration for a half-maximal effect (EC50) in test [1] was 9.12 µM (active); in [2], > 120 µM (not active); in [7], 3.47 µM (active); in [8], 52.3 µM (active); in test [9], 4.11 µM (active); in [6], > 120 µM (not active).
Usually CC50 stands for the concentration giving 50% cytotoxicity. In the case of `COc1cc(C(=O)Nc2cccc(-c3cn4cccnc4n3)c2)cc(OC)c1OC`, the CC50 in test [10] is > 40 µM (active).
Broadly, the IC50 is the point on the concentration scale where inhibition reaches its midpoint. With `Cc1ccc(SSc2cc(C)ccc2N)c(N)c1`, the EC50 is 42.5 µM (inconclusive) in the test with H4; < 0.1 µM (inconclusive) in [12]; 1.21 µM (active) in test [13]; > 40 µM (inactive) on Beta-galactosidase; 5 µM (active) in [14]; 1.67 µM (active) in test [15]. The IC50 in [11] was > 40 µM (not active); on Large T antigen, 10.8 µM (active).
As for `Cn1c(CCN2CCCCCC2)nc2cc(NC(=O)Nc3ccccc3)ccc21`, the half-maximal effective concentration (EC50) in test [7] and in test [9] was > 20 µM (not active) each time.
Regarding `Cc1cc(C(=O)CN2C(=O)NC(c3ccccc3)(c3ccccc3)C2=O)c(C)n1Cc1ccccc1`, the CC50 in test [10] is > 40 µM (active).
Turning to `COc1cc2cc3c(N)c(C(=O)Nc4sc(C)c(C)c4C#N)sc3nc2cc1OC`, the half-inhibitory concentration (IC50) is 11.8 µM (active) in [16]; 8.14 µM (active) in test [17]; 1.26 µM (active) in test [18]; 48.3 µM (active) in test [19]; > 36.3 µM (not active) against NS3; > 50 µM (inactive) in test [20]. At Prothrombin, the 50% inhibitory concentration (IC50) was 25.8 µM (active). The AC50 on Cytochrome P450 3A4 was 8.91 µM (inconclusive); at Cytochrome P450 2C19, 15.8 µM (inconclusive).
For `O=C(CCC(=O)N1CCN(C2CCCC2)CC1)Nc1nnc(C(F)(F)F)s1`, the 50% effective concentration (EC50) in [7] and in [9] was > 20 µM (not active) each time.
Take `Cc1cc(N)ccc1N=Nc1c(C)n(C)n(-c2ccccc2)c1=O`: the half-inhibitory concentration (IC50) on Large T antigen was 33.9 µM (active). Also, the AC50 with HeLa is 285 µM (active).
Turning to `COc1cc(C(=O)N2CCN(c3cc(Cl)ccc3Cl)CC2)cc(OC)c1OC`, the EC50 was < 0.1 µM (active) in test [1]; 0.148 µM (active) in [2]; 0.575 µM (active) in [3]; 0.457 µM (active) in the test “cells”; 0.352 µM (active) in test [4]; 0.164 µM (active) in test [6]. Further, the IC50 in test [21] is > 80 µM (inactive).
Consider `COc1ccccc1NC(=O)c1cc2cc(Br)ccc2cc1O`, for which the values for the CC50 in the test on Vero [22] and in the test on Vero [23] were 4.04 µM (active) and 2.72 µM (active), respectively. Also, in the test on INS1, the AC50 was 6.21 µM (active). In addition, the IC50 in [18] was 2.63 µM (active); at NS3, > 4.03 µM (active).
With `CCCCOc1ccc(-c2cc(C(F)(F)F)c(C#N)c(SCC(=O)O)n2)cc1`, the half-maximal activity concentration (AC50) on CAAX prenyl protease 2 is 25.4 µM (active). Also, at NS3, the half-maximal inhibitory concentration (IC50) was 1.98 µM (active).
As for `COc1cc2nc(N3CCN(C(=O)OCc4ccccc4)[C@H](C(=O)NC(C)(C)C)C3)nc(N)c2cc1OC`, the cytotoxic concentration (CC50) in test [10] is 29.3 µM (active).
`CCCc1nc(SC)nc(O)c1C`: the AC50 in the test on HeLa was 81.7 µM (active).
As for `CC(C)(C)c1ccc(OCc2ccc(C(=O)N/N=C3\CC4CC=CC34)cc2)cc1` (stereo not given), the cytotoxic concentration (CC50) in test [10] was > 40 µM (active).
